Assays:
[1] = biological target: T1, A. nidulans bimC motor domain (Emericella nidulans, UniProt P17120); experiment: ATPase assay of bimC motor domain (ATP hydrolysis, ADP or phosphate readout); type: biochemical, Aspergillus nidulans; details: bimC kinesin motor domain; motor domain fragment cloned and expressed in bacteria; FIG. 14
T1 construct: ATPase (bimC kinesin motor domain); made in house; host or cells: bacteria
T1 sequence (P17120 81-416 limits assumed): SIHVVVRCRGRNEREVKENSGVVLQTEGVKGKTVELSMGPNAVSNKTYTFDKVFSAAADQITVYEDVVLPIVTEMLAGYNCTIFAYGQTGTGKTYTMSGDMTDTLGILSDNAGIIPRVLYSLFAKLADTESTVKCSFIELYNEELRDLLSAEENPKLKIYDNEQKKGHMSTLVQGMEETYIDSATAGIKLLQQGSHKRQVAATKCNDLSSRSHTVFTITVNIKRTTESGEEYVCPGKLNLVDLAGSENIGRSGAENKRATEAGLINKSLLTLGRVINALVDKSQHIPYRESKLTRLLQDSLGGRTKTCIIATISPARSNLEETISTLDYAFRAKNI
Description: FIG. 12 depicts the cloning and expression of A. nidulans bimC motor domain. In Panel A, an overview of the express is shown. The fragment containing the bimC motor domain is indicated by a filled semi-circle. In B, a Coomassie stained gel of the purification of bimC motor domain is shown.
Aspergillus nidulans bimC is a kinesin related protein (KRP) whose gene product encodes an essential mitotic KRP. BimC is the founding member of the bimC subfamily of mitotic kinesins (Morris NR, Enos AP. (1992) Trends Genet 8:1 32-7). Mutants in bimC are blocked in mitosis and arrest with duplicated but unseparated spindle poles. (Enos AP, Morris NR. (1990) Cell 60:6 1019-27). Following the discovery that bimC encodes a KRP, several bimC family members have been identified in diverse organisms ranging from yeast to humans. See. FIG. 1. […]
In a particularly preferred embodiment, a fragment of the bimC protein comprising its hydrolytically active “motor” domain is used. This motor domain has been cloned and expressed in bacteria such that large quantities of biochemically active, substantially pure protein are available (FIG. 12). […]
In a preferred embodiment, activity is measured by the methods disclosed in Serial No. 09/314,464, filed May 18, 1999, which is incorporated herein by reference in its entirety. […] The presence of ADP or inorganic phosphate release is used as the readout for protein activity. […]

fungal tubulin = details: cited from earlier work
mammalian tubulin = details: cited from earlier work

IC50 [1] [µM]	Compound	inhibition of fungal tubulin (fungal tubulin)	effect on mammalian tubulin (mammalian tubulin)
25	O=C1OC(c2ccco2)=N/C1=C\c1ccc(Br)s1 [D00018 row 1]		
	CCCCNC(=O)n1c(NC(=O)OC)nc2ccccc21 [benomyl]	potent inhibitor	no effect

Reference: US6627408B1, “Antifungal assay” (Cytokinetics, Inc., priority 2000, dated 2003)
